Source: US20200237742A1, “Serdexmethylphenidate Conjugates, Compositions And Methods Of Use Thereof” (priority 2018, published 2020)
Where a name gives a salt, the structure may show the parent alone.

How the values were obtained:
[1] = test system: recreational stimulant abusers; test: Intravenous abuse potential study, VAS pharmacodynamic assessments; type: in vivo, human
Excerpt: “Drug liking” score, used herein, is the score used to assess the degree that a human participant likes a drug effect at the time the question is being asked (that is, at the moment). It is scored using a 0 to 100 point bipolar visual analogue scale (VAS) anchored in the center with a neutral anchor of “neither like nor dislike” (score of 50), on the left with “strong disliking” (score of 0) and on the right with “strong liking” (score of 100).
“Euphoria” or “Feeling High” score, used herein, is the term to describe the score used to assess the degree that a human participant is high at the time the question is being asked (that is, at the moment). It is scored using a 0 to 100 point unipolar visual analogue scale (VAS) anchored on the left with “Not at All” (score of 0) and on the right with “Extremely” (score of 100).
“Take Drug Again” score, used herein, is the term to describe the score used to assess the degree that a human participant wants to take the drug again, if given the opportunity, based on his/her opinion now, i.e., at the time the question is being asked. It is scored using a 0 to 100 point unipolar visual analogue scale (VAS) anchored on the left with “Definitely Would Not” (score of 0) and on the right with “Definitely Would” (score of 100).
“Overall Drug Liking” score, used herein, is the term to describe the score used to assess the human subject's global perception of drug liking (i.e., the subjective effects over the whole course of the drug experience including any carryover effects). Subjects respond to the statement “Overall, my liking for this drug is.” The question is scored using a 0-100 point bipolar VAS anchored on the left with “Strong Disliking” (score of 0); “Neither Like nor Dislike” (score of 50) in the middle, and anchored on the right with “Strong Liking” (score of 100). This scale has the advantage of the human subject being relatively less affected or unaffected by acute study drug effects (if any) by the time of the assessment.
“Good Effects” score, used herein, is the term to describe the score used to assess the degree that a human participant is feeling good drug effects at the time the question is being asked (that is, at the moment). Subjects respond to the statement “At this moment, I can feel good drug effects.” It is scored using a 0 to 100 point unipolar visual analogue scale (VAS) anchored on the left with “Not at All” (score of 0) and on the right with “Extremely” (score of 100).
Safety assessments were performed throughout the study.

[2] = test system: healthy, nondependent, recreational stimulant users with intranasal insufflation experience; test: Intranasal abuse potential study, VAS pharmacodynamic assessments
Excerpt: “Ease of Insufflation” VAS is the measure that assesses the difficulty of snorting the study drugs. Subjects will respond to the statement “Snorting this drug was:” The question will be scored using a 0-100 points unipolar VAS anchored on the left with “Very Easy” (score of 0) and anchored on the right with “Very Difficult” (score of 100).
The study consisted of a Screening Period, an in-clinic Drug Discrimination Phase, a Treatment Phase, and a Follow-Up Visit.
Subjects who successfully completed the Screening Period returned to the clinic to complete the Drug Discrimination Phase. […] Subjects who successfully completed the Drug Discrimination Phase remained as inpatients to enter the Treatment Phase. The Drug Discrimination Phase was a double-blind, intranasal, single-dose, 2-treatment, 2-period, 2-sequence, randomized, crossover design.
All subjects were required to fast for at least 8 hours prior to each dose of study drug until approximately 4 hours after each dose. Abuse potential measures and pharmacokinetic samples were collected at different times after the administration of study drug. Subjects who successfully completed the Drug Discrimination Phase and who qualified for the Treatment Phase remained as inpatients to enter the Treatment Phase.
The placebo dose consisted of 80 mg of microcrystalline cellulose to create the same volume.
On dosing days in the Treatment Phase, blood samples were collected for the measurement of the plasma concentrations of SDX, d-methylphenidate (d-MPH), 1-methylphenidate (1-MPH) and ritalinic acid at predose and at 0.25, 0.5, 0.75, 1, 1.5, 2, 3, 4, 5, 6, 7, 8, 9, 10, 12, 16, 24, 36, and 48 hours ±5 minutes after each dose of study drug. […] All VAS pharmacodynamic assessments except Take Drug Again and Overall Drug Liking were performed at 0.25, 0.5, 0.75, 1, 1.5, 2, 3, 4, 5, 6, 7, 8, 10, 12, 24 hours ±5 minutes postdose. In addition, predose assessments of Feeling High, and Drowsiness/Alertness were collected. The Take Drug Again and Overall Drug Liking VAS assessments were performed at 12 and 24 hours ±5 minutes postdose. Ease of Nasal Insufflation scores were completed within 5 minutes after the completion of each intranasal drug administration during the Treatment Phase.

[3] = 12 hours, SDX Cl 30 mg, d-MPH HCl 15 mg
[4] = 12 hours, d-MPH HCl 15 mg vs SDX Cl 30 mg
[5] = 24 hours, d-MPH HCl 15 mg vs SDX Cl 30 mg
[6] = Emax, d-MPH HCl 15 mg vs SDX Cl 30 mg
[7] = d-MPH HCl 15 mg vs SDX Cl 30 mg
[8] = 12 hours, SDX Cl 80 mg, d-MPH HCl 40 mg
[9] = 24 hours, SDX Cl 80 mg, d-MPH HCl 40 mg
[10] = 12 hours, SDX Cl 30 mg vs placebo
[11] = 24 hours, SDX Cl 30 mg vs placebo
[12] = 24 hours, SDX Cl 30 mg, d-MPH HCl 15 mg

COC(=O)[C@H](c1ccccc1)[C@H]1CCCCN1 [d-methylphenidate hydrochloride, d-threo-methylphenidate hydrochloride]
Mean Overall Drug Liking [1, 3]: 68.0 | Median Overall Drug Liking [1, 3]: 73.0 | Mean Difference Take Drug Again, B vs A [1, 4]: 43.3 | Overall Drug Liking, Median difference B vs A [1, 4]: 16.0 | Mean Difference Take Drug Again, B vs A [1, 5]: 39.2 | Overall Drug Liking, Median difference B vs A [1, 5]: 13.5 | Mean Difference Take Drug Again, B vs A [1, 6]: 43.1 | Overall Drug Liking, Median difference B vs A [1, 6]: 18.0 | Feeling High Emax, Median difference B vs A [1, 7]: 67.0 | Good Effects Emax, Median difference B vs A [1, 7]: 73.0 | Median Difference Drug Liking Emax, B vs A ([1]; d-MPH HCl 15 mg vs SDX Cl 30 mg, bipolar VAS): 29.0 | Median Overall Drug Liking [2, 8]: 87 | Median Take Drug Again [2, 8]: 91 | Median Overall Drug Liking [2, 9]: 82 | Median Take Drug Again [2, 9]: 94 | Mean Difference Overall Drug Liking, B vs A ([2]; 24 hours, d-MPH HCl 40 mg vs SDX Cl 80 mg): statistically higher

COC(=O)[C@H](c1ccccc1)[C@H]1CCCCN1C(=O)OC[n+]1cccc(C(=O)N[C@@H](CO)C(=O)O)c1.[Cl-] [serdexmethylphenidate chloride]
Mean Difference Take Drug Again, A vs C [1, 10]: 9.1 | Overall Drug Liking, Mean difference A vs C [1, 10]: 2.8 | Median Overall Drug Liking [1, 3]: 50.0 | Median Take Drug Again [1, 3]: 0.0 | Mean Difference Take Drug Again, A vs C [1, 11]: 1.4 | Overall Drug Liking, Mean difference A vs C [1, 11]: 1.2 | Median Overall Drug Liking [1, 12]: 50.0 | Median Take Drug Again [1, 12]: 0.0 | Mean Difference Take Drug Again, A vs C ([1]; Emax, SDX Cl 30 mg vs placebo): 6.0 | Overall Drug Liking, Mean difference A vs C ([1]; Emax, SDX Cl 30 mg vs placebo): 1.4 | Feeling High Emax, Mean difference A vs C ([1]; SDX Cl 30 mg vs placebo): 3.4 | Good Effects Emax, Mean difference A vs C ([1]; SDX Cl 30 mg vs placebo): 2.2 | Median Difference Drug Liking Emax, A vs C ([1]; SDX Cl 30 mg vs placebo, bipolar VAS): 0.5 | Median Overall Drug Liking [2, 8]: 58 | Median Take Drug Again [2, 8]: 51 | Mean Overall Drug Liking [2, 9]: 59.0 | Median Overall Drug Liking [2, 9]: 55 | Median Take Drug Again [2, 9]: 50
